Laboratory results taken from patent publication US9414587B2, “Solubilized magnolol analogs” (Cologne-Palmolive Company, priority 2011, dated 2016).

Type: physicochemical
Description: Each of the sorbitan esters is capable of solubilizing up to 100 g per liter of neat propyl magnolol or butyl magnolol. In certain embodiments, the amount of sorbitan ester is at least 10 times the weight of the propyl magnolol or butyl magnolol in the composition.
Polysorbate 80 is capable of solubilizing up to 50 g per liter of neat isopropyl magnolol or isobutyl magnolol. In certain embodiments, the amount of polysorbate 80 is at least 20 times the weight of the isopropyl magnolol or isobutyl magnolol in the composition. It was surprising that polysorbate 80 was able to solubilize these analogs. Isobutyl magnolol is not soluble in polysorbate 20, polysorbate 40, or polysorbate 85.
Polysorbate 20 is capable of solubilizing up to 100 g per liter of neat isopropyl magnolol. In certain embodiments, the amount of polysorbate 20 is at least 10 times the weight of the isopropyl magnolol in the composition. It was surprising that polysorbate 20 was able to solubilize these analogs. Isopropyl magnolol is only soluble up to 10 g per liter in polysorbate 40 or polysorbate 85.
It was surprising that these sorbitan esters were capable of solubilizing these analogs.

CCCCc1ccc(O)c(-c2cc(CCCC)ccc2O)c1 [butyl magnolol, 5,5′-di-n-butylbiphenyl-2,2′-diol]
amount of neat analog that the sorbitan ester is capable of solubilizing: up to 100 g per liter

CC(C)Cc1ccc(O)c(-c2cc(CC(C)C)ccc2O)c1 [isobutyl magnolol, 5,5′-di-isobutylbiphenyl-2,2′-diol]
amount of neat analog that polysorbate 80 is capable of solubilizing: up to 50 g per liter | solubility in polysorbate 20 (in words): not soluble | solubility in polysorbate 40 (in words): not soluble

CC(C)c1ccc(O)c(-c2cc(C(C)C)ccc2O)c1 [isopropyl magnolol, 5,5′-di-isopropylbiphenyl-2,2′-diol]
amount of neat analog that polysorbate 20 is capable of solubilizing: up to 100 g per liter | amount of neat analog that polysorbate 80 is capable of solubilizing: up to 50 g per liter | solubility in polysorbate 40: up to 10 g per liter | solubility in polysorbate 85: up to 10 g per liter

CCCc1ccc(O)c(-c2cc(CCC)ccc2O)c1 [propyl magnolol, 5,5′-di-n-propylbiphenyl-2,2′-diol]
amount of neat analog that the sorbitan ester is capable of solubilizing: up to 100 g per liter
